Measurements: the NIST ThermoML archive (doi:10.1016/j.jct.2013.09.028)
Numbers after ± are expanded uncertainties.

Assays:
[1] = 101.33 kPa, Liquid; for viscosity: Capillary tube (Ostwald / Ubbelohde) method; for speed of sound: Sing-around technique in a fixed-path interferometer; for mass density: Vibrating tube method
[2] = refractive index (Na D-line) (dimensionless); conditions: 101.33 kPa, Liquid, Standard Abbe refractometry

| SMILES | viscosity ([1]; 298.15 K) [mPa·s] | speed of sound ([1]; 298.15 K) [m/s] | mass density ([1]; 298.15 K) [kg/m3] | viscosity ([1]; 303.15 K) [mPa·s] | speed of sound ([1]; 303.15 K) [m/s] | mass density ([1]; 303.15 K) [kg/m3] | viscosity ([1]; 308.15 K) [mPa·s] | speed of sound ([1]; 308.15 K) [m/s] | mass density ([1]; 308.15 K) [kg/m3] | viscosity ([1]; 313.15 K) [mPa·s] | speed of sound ([1]; 313.15 K) [m/s] | mass density ([1]; 313.15 K) [kg/m3] | viscosity ([1]; 318.15 K) [mPa·s] | speed of sound ([1]; 318.15 K) [m/s] | mass density ([1]; 318.15 K) [kg/m3] | viscosity ([1]; 323.15 K) [mPa·s] | speed of sound ([1]; 323.15 K) [m/s] | mass density ([1]; 323.15 K) [kg/m3] | viscosity ([1]; 328.15 K) [mPa·s] | speed of sound ([1]; 328.15 K) [m/s] | also measured |
| --- | --- | --- | --- | --- | --- | --- | --- | --- | --- | --- | --- | --- | --- | --- | --- | --- | --- | --- | --- | --- | --- |
| CCCCCC[n+]1cc(C)cc(C)c1C.O=S(=O)([N-]S(=O)(=O)C(F)(F)F)C(F)(F)F | 174 ± 5 | 1288 ± 2 | 1336.18 ± 0.52 | 129 ± 4 | 1276 ± 2 | 1331.83 ± 0.51 | 98.2 ± 2.5 | 1264 ± 2 | 1327.48 ± 0.51 | 76.2 ± 1.8 | 1252 ± 2 | 1323.15 ± 0.51 | 60.2 ± 1.4 | 1240 ± 2 | 1318.83 ± 0.5 | 48.3 ± 1.1 | 1229 ± 2 | 1314.52 ± 0.5 | 39.3 ± 0.9 | 1218 ± 2 | mass density ([1]; 328.15 K): 1310.23 ± 0.49 kg/m3; viscosity ([1]; 333.15 K): 32.4 ± 0.7 mPa·s; speed of sound ([1]; 333.15 K): 1206 ± 2 m/s; mass density ([1]; 333.15 K): 1305.85 ± 0.49 kg/m3; viscosity ([1]; 338.15 K): 27.1 ± 0.6 mPa·s; speed of sound ([1]; 338.15 K): 1195 ± 2 m/s; mass density ([1]; 338.15 K): 1301.66 ± 0.49 kg/m3; viscosity ([1]; 343.15 K): 23 ± 0.5 mPa·s; speed of sound ([1]; 343.15 K): 1184 ± 2 m/s; mass density ([1]; 343.15 K): 1297.4 ± 0.48 kg/m3; refractive index ([2]; 298.15 K): 1.46466 ± 0.00037; refractive index ([2]; 303.15 K): 1.46311 ± 0.00037; refractive index ([2]; 308.15 K): 1.4615 ± 0.00037; refractive index ([2]; 313.15 K): 1.4599 ± 0.00037; refractive index ([2]; 318.15 K): 1.45826 ± 0.00037; refractive index ([2]; 323.15 K): 1.45671 ± 0.00037; refractive index ([2]; 328.15 K): 1.45514 ± 0.00037; refractive index ([2]; 333.15 K): 1.45357 ± 0.00037; refractive index ([2]; 338.15 K): 1.452 ± 0.00037; refractive index ([2]; 343.15 K): 1.45044 ± 0.00037 |
| CCCCCc1c(C)cc(C)c[n+]1CC.O=S(=O)([N-]S(=O)(=O)C(F)(F)F)C(F)(F)F | 260 ± 9 | 1309 ± 2 | 1323.9 ± 0.51 | 187 ± 6 | 1296 ± 2 | 1319.56 ± 0.5 | 138 ± 4 | 1283 ± 2 | 1315.21 ± 0.5 | 104 ± 3 | 1270 ± 2 | 1310.86 ± 0.49 | 79.9 ± 1.9 | 1258 ± 2 | 1306.53 ± 0.49 | 62.8 ± 1.4 | 1245 ± 2 | 1302.2 ± 0.49 | 50.1 ± 1.1 | 1233 ± 2 | mass density ([1]; 328.15 K): 1297.9 ± 0.48 kg/m3; viscosity ([1]; 333.15 K): 40.7 ± 0.9 mPa·s; speed of sound ([1]; 333.15 K): 1221 ± 2 m/s; mass density ([1]; 333.15 K): 1293.6 ± 0.48 kg/m3; viscosity ([1]; 338.15 K): 33.5 ± 0.7 mPa·s; speed of sound ([1]; 338.15 K): 1209 ± 2 m/s; mass density ([1]; 338.15 K): 1289.3 ± 0.48 kg/m3; viscosity ([1]; 343.15 K): 28 ± 0.6 mPa·s; speed of sound ([1]; 343.15 K): 1198 ± 2 m/s; mass density ([1]; 343.15 K): 1285.03 ± 0.47 kg/m3; refractive index ([2]; 298.15 K): 1.46108 ± 0.00037; refractive index ([2]; 303.15 K): 1.45947 ± 0.00037; refractive index ([2]; 308.15 K): 1.45787 ± 0.00037; refractive index ([2]; 313.15 K): 1.45627 ± 0.00037; refractive index ([2]; 318.15 K): 1.45463 ± 0.00037; refractive index ([2]; 323.15 K): 1.45304 ± 0.00037; refractive index ([2]; 328.15 K): 1.45139 ± 0.00037; refractive index ([2]; 333.15 K): 1.44979 ± 0.00037; refractive index ([2]; 338.15 K): 1.44822 ± 0.00037; refractive index ([2]; 343.15 K): 1.44667 ± 0.00037 |
